This is an account of results in patent publication US20210330611A1, “THERAPY FOR NEUROLOGICAL DISEASES/DISORDERS” (priority 2020, published 2021).

Each structure is given as a SMILES string. Several values for one entry are separate records, joined by “and”; a condition that tells them apart may be missing. Equal entries are not always repeated. Structures can show the parent of a compound that is named as a salt. Where two headings read alike, the source gives them in different places.

The subject of data set [1] is primary rat microglia. The data set is described as follows: Cell toxicity (dead cells, size <150 μm2) in coated fibrin (cFib) assay.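 As to Fibrin % cell toxicity: share of dead cells sized under 150 µm2 at 10 µM in fibrin-stimulated microglia HTS.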 The settings on record: primary microglia HTS, fibrin stimulation; decreased size (<150 μm^2) as marker of toxicity.
Data set [2] deals with LPS-induced microglia activation. The experiment in a line: Image-based assay of LPS-induced microglia activation (HTS and dose response). It is filed as cell-based, rat. The settings on record: Rattus norvegicus, Microglia; for inhibition at 10 µM: primary microglia HTS, LPS stimulation, increased cell size (>800 μm^2) as marker of activation, read-out: LPS % inhibition.
Data set [3] concerns fibrin- and LPS-induced microglia activation. The data set is described as follows: cells. It is filed as cell-based, rat. The following applies: for inhibition at 10 µM: Rattus norvegicus; for Activity: Table 7, fib = fibrin, LPS, tox = toxicity.
For data set [4], the system named is fibrin-induced microglia activation. The data set is described as follows: Image-based assay of fibrin-induced microglia activation (HTS and dose response). The data set is classed as cell-based, rat. The following applies: for IC50 / inhibition at 10 µM: Rattus norvegicus, Microglia; for inhibition at 10 µM: primary microglia HTS, fibrin stimulation, increased cell size (>800 μm^2) as marker of activation, read-out: Fibrin % inhibition.

The test system of data set [5] is primary rat microglia. The data set is described as follows: Cell toxicity (dead cells, size <150 μm2) in LPS assay. The following applies: for LPS % cell toxicity: primary microglia HTS, LPS stimulation, decreased size (<150 μm^2) as marker of toxicity; for IC50: read-out: Cell Toxicity IC50 (uM) [LPS assay], LPS assay.
Data set [6] is described as follows: in vitro. The following applies: rat, Cell Toxicity IC50 (uM) [cFib assay].
Data set [7] can be described thus: in vitro. The following applies: rat.
[8] abbreviates: 48 h, Table 1, dose response 0.001-20 μM, triplicates, primary rat microglia, 48 h, read-out: LPS IC50.
[9] abbreviates: LPS-induced microglia activation, dose response, read-out: LPS IC50 (uM) (Suppl. Table 7).
The mark [10] stands for this setting: dose response, LPS-induced microglia activation, read-out: LPS IC50.
Setting [11] is: HTS of 1907 compounds, quadrant by fibrin and LPS inhibition.
[12] abbreviates: Microglia, HTS hit classification, read-out: Hit.
[13] abbreviates: hit classification in microglia HTS, read-out: Cherry-picked Hit (Suppl. Table 7).
[14] abbreviates: quadrant by fibrin and LPS inhibition in HTS of 1907 compounds.
[15] abbreviates: 48 h, Table 1, dose response 0.001-20 μM, triplicates, primary rat microglia, 48 h, read-out: Fibrin IC50.
The mark [16] stands for this setting: dose response, fibrin-induced microglia activation, read-out: Fibrin IC50.
Setting [17] is: fibrin-induced microglia activation, dose response, read-out: Fibrin IC50 (uM) (Suppl. Table 7).
Setting [18] is: Table 3, read-out: LPS IC50 (uM) (Suppl. Table 7).
[19] abbreviates: Table 6, read-out: LPS IC50 (uM) (Suppl. Table 7).
Setting [20] is: Microglia, Table 3, read-out: Cherry-picked Hit (Suppl. Table 7).
The mark [21] stands for this setting: Table 3, read-out: Fibrin IC50 (uM) (Suppl. Table 7).
Where [22] appears, read: Table 6, read-out: Fibrin IC50 (uM) (Suppl. Table 7).

As to `CC(=O)O[C@H]1C[C@@]2(C)[C@@H](C[C@@H](O)[C@H]3[C@@]4(C)CC[C@@H](O)[C@@H](C)[C@@H]4CC[C@@]32C)/C1=C(\CCC=C(C)C)C(=O)O` [Fusidic acid, reference compound], the “Fibrin % cell toxicity” value in data set [1] was determined as 1%. In addition, the IC50 was over 20 µM in data set [2] (setting [8]); over 20 µM in data set [2] (setting [9]); over 20 µM in data set [2] (setting [10]); 19 µM in data set [4] (setting [15]); 19 µM in data set [4] (setting [16]); 19 µM in data set [4] (setting [17]). The results for the IC50 in data set [6] (cFib assay) and in data set [7] were over 20 µM and over 20000 nM, respectively. Moreover, the inhibition at 10 µM was 74% in data set [2] (48 h), over 50% in data set [3] (setting [12]), over 50% in data set [3] (setting [13]) and 77% in data set [4]. Further, the “Quadrant (FIG. 5b)” value in data set [3] (setting [11]) was “Q2”; in data set [3] (Table 1, screen at 10 μM), “Q2”; in data set [3] (setting [14]) it was “Q2”. In data set [5], the “LPS % cell toxicity” value is given as 2%.

For the molecule `CCCC(=O)O[C@]1(C(=O)CO)CC[C@H]2[C@@H]3CCC4=CC(=O)CC[C@]4(C)[C@H]3[C@@H](O)C[C@@]21C` [Hydrocortisone butyrate, reference compound], the “Fibrin % cell toxicity” value in data set [1] is given as 2%. The IC50 in data set [2] (setting [8]) is 2 µM; in data set [2] (setting [9]) it was 2 µM; in data set [2] (setting [18]) it was 2 µM; in data set [2] (setting [19]), 2 µM; in data set [2] (Table 7, read-out: LPS_IC50), 0.005 µM; in data set [2] (setting [10]), 2 µM. Besides, the IC50 in data set [4] (setting [15]) amounted to 0.02 µM; in data set [4] (setting [21]) it was 0.02 µM; in data set [4] (setting [22]), 0.02 µM; in data set [4] (Table 7, read-out: fib_IC50), 0.071 µM; in data set [4] (setting [16]), 0.02 µM; in data set [4] (setting [17]), 0.02 µM. For the same molecule, the IC50 in data set [5] is over 20 µM; in data set [5] (Table 6), over 20 µM; in data set [6] (Table 3), over 20 µM; in data set [6] (cFib assay) it was over 20 µM; in data set [6] (cFib assay, Table 6), over 20 µM; in data set [7] it was over 20000 nM. The inhibition at 10 µM was 78% in data set [2] (48 h), over 50% in data set [3] (setting [20]), over 50% in data set [3] (setting [12]) and 108% in data set [4]. In addition, the “Quadrant (FIG. 5b)” value is on record as “Q2” in data set [3] (setting [11]); “Q2” in data set [3] (Table 1, screen at 10 μM); “Q2” in data set [3] (Table 2, screen at 10 μM); “Q2” in data set [3] (Table 3, screen at 10 μM); “Q2” in data set [3] (microglia HTS, Table 6); “Q2” in data set [3] (setting [14]). Moreover, in data set [3], the Activity entry is listed as “fib/LPS”. Further, the “Fibrin Selectivity” value in data set [4] turned out to be 89. Further, the “Fibrin Selectivity (LOG10)” value in data set [4] is 1.95. The “LPS % cell toxicity” value in data set [5] turned out to be 2%.

On to `CCCCC(=O)O[C@]1(C(=O)CO)CC[C@H]2[C@@H]3CCC4=CC(=O)CC[C@]4(C)[C@H]3[C@@H](O)C[C@@]21C` [Hydrocortisone valerate, reference compound], for which the “Fibrin % cell toxicity” value in data set [1] is 1%. For the same molecule, the IC50 in data set [2] (setting [8]) was 1 µM; in data set [2] (setting [9]), 1 µM; in data set [2] (setting [18]) it was 1 µM; in data set [2] (setting [10]), 1 µM; in data set [4] (setting [15]), 0.05 µM; in data set [4] (setting [21]), 0.05 µM. Further, the IC50 in data set [4] (setting [16]) is 0.05 µM; in data set [4] (setting [17]), 0.05 µM; in data set [5], over 20 µM; in data set [6] (Table 3) it was over 20 µM; in data set [6] (cFib assay), over 20 µM; in data set [7], over 20000 nM. Also, the inhibition at 10 µM is 73% in data set [2] (48 h), over 50% in data set [3] (setting [20]), over 50% in data set [3] (setting [12]) and 95% in data set [4]. The “Quadrant (FIG. 5b)” value in data set [3] (setting [11]) is reported as “Q2”; in data set [3] (Table 1, screen at 10 μM), “Q2”; in data set [3] (Table 3, screen at 10 μM) it was “Q2”; in data set [3] (setting [14]) it was “Q2”. For the same molecule, the “Fibrin Selectivity” value in data set [4] came out at 28. Besides, in data set [4], the “Fibrin Selectivity (LOG10)” value worked out at 1.45. In addition, the “LPS % cell toxicity” value in data set [5] is recorded as 1%.

As to `C[C@]12CCC(=O)C=C1CC[C@@H]1[C@@H]2[C@@H](O)C[C@@]2(C)[C@H]1CC[C@]2(O)C(=O)CO` [Hydrocortisone, reference compound], the “Fibrin % cell toxicity” value in data set [1] is 2% and 4%. The IC50 in data set [2] (setting [19]) is 18 µM; in data set [2] (Table 7, read-out: LPS_IC50), 0.002 µM; in data set [4] (setting [22]), 0.03 µM; in data set [4] (Table 7, read-out: fib_IC50), 0.018 µM; in data set [5], over 20 µM; in data set [5] (Table 6), over 20 µM. The IC50 in data set [6] (Table 3) was over 20 µM; in data set [6] (cFib assay), over 20 µM; in data set [6] (cFib assay, Table 6) it was over 20 µM; in data set [7], over 20000 nM. Further, the “Quadrant (FIG. 5b)” value in data set [3] (setting [11]) is listed as “Q2”; in data set [3] (Table 1, screen at 10 μM) it was “Q2”; in data set [3] (Table 2, screen at 10 μM) it was “Q2”; in data set [3] (Table 3, screen at 10 μM) it was “Q2”; in data set [3] (microglia HTS, Table 6), “Q2”; in data set [3] (setting [14]), “Q2”. Also, the inhibition at 10 µM in data set [3] (setting [20]) is over 50%; in data set [3] (setting [12]), over 50%; in data set [4], 104%. For the same molecule, the Activity result in data set [3] is “fib/LPS”. Besides, the “LPS % cell toxicity” value in data set [5] is 2% and 1% and 5%.

Take `CC(C)C(=O)c1c(C(C)C)nn2ccccc12` [Ibudilast, reference compound]: the “Fibrin % cell toxicity” value in data set [1] is reported as 1%. The IC50 in data set [2] (setting [8]), in data set [2] (setting [9]), in data set [2] (setting [10]), in data set [4] (setting [15]), in data set [4] (setting [16]) and in data set [4] (setting [17]) was over 20 µM each time. The IC50 in data set [6] (cFib assay) was over 20 µM; in data set [7], over 20000 nM. Further, the inhibition at 10 µM in data set [2] (48 h) was 57%; in data set [3] (setting [12]), over 50%; in data set [3] (setting [13]), over 50%; in data set [4], 75%. Further, the “Quadrant (FIG. 5b)” value is “Q2” in data set [3] (setting [11]); “Q2” in data set [3] (Table 1, screen at 10 μM); “Q2” in data set [3] (setting [14]). In addition, the “LPS % cell toxicity” value in data set [5] amounted to 1%.

As for `c1ccc2c(c1)OCC(C1=NCCN1)O2` (stereo not shown) [Idazoxan hydrochloride, reference compound], the “Fibrin % cell toxicity” value in data set [1] was determined as 2%. In addition, the IC50 in data set [2] (setting [8]) is 2 µM; in data set [2] (setting [9]), 2 µM; in data set [2] (setting [18]) it was 2 µM; in data set [2] (setting [10]), 2 µM; in data set [4] (setting [15]), 0.4 µM; in data set [4] (setting [21]), 0.4 µM. The IC50 in data set [4] (setting [16]) is 0.4 µM; in data set [4] (setting [17]) it was 0.4 µM; in data set [5], over 20 µM; in data set [6] (Table 3), over 20 µM; in data set [6] (cFib assay), over 20 µM; in data set [7], over 20000 nM. Besides, the inhibition at 10 µM in data set [2] (48 h) was 14%; in data set [3] (setting [20]), over 50%; in data set [3] (setting [12]) it was over 50%; in data set [4] it was 70%. For the same molecule, the “Quadrant (FIG. 5b)” value in data set [3] (setting [11]) was “Q3”; in data set [3] (Table 1, screen at 10 μM), “Q3”; in data set [3] (Table 3, screen at 10 μM), “Q3”; in data set [3] (setting [14]) it was “Q3”. Further, the “Fibrin Selectivity” value in data set [4] was found to be 5. In data set [4], the “Fibrin Selectivity (LOG10)” value was 0.69. For the same molecule, the “LPS % cell toxicity” value in data set [5] came out at 0%.

Regarding `CCCCC1=NC2(CCCC2)C(=O)N1Cc1ccc(-c2ccccc2-c2nnn[nH]2)cc1` [Irbesartan, reference compound], the “Fibrin % cell toxicity” value in data set [1] is recorded as 2%. For the same molecule, the IC50 in data set [2] (setting [8]), in data set [2] (setting [9]), in data set [2] (setting [10]), in data set [4] (setting [15]), in data set [4] (setting [16]) and in data set [4] (setting [17]) was over 20 µM throughout. In addition, the IC50 is over 20 µM in data set [6] (cFib assay) and over 20000 nM in data set [7]. Further, the inhibition at 10 µM in data set [2] (48 h) was 31%; in data set [3] (setting [12]) it was over 50%; in data set [3] (setting [13]), over 50%; in data set [4], 66%. Also, the “Quadrant (FIG. 5b)” value was “Q3” in data set [3] (setting [11]); “Q3” in data set [3] (Table 1, screen at 10 μM); “Q3” in data set [3] (setting [14]). Besides, the “LPS % cell toxicity” value in data set [5] is given as 1%.
